These results are taken from patent US20050043341A1, “3-'Hydroxy-(-4-trifluoromethylphenyl)-methyl-7-spirocyclobutyl-5,6,7 8-tetrahydroquinolin-5-ol derivatives and the use of the same as cholesterol ester transfer protein (cetp) inhibitors” (priority 2001, published 2005).

Experiment [1] concerns transgenic hCETP mice. Description: In vivo activity in transgenic hCETP mice (HDL). To be noted: stomach tube. Here is the method: In experiments for the determination of the oral action on lipoproteins and triglycerides, test substance is administered to transgenic mice using a stomach tube (Dinchuck, Hart, Gonzalez, Karmann, Schmidt, Wirak; BBA (1995), 1295, 301). Before the start of the experiment, blood is taken from the mice retroorbitally in order to determine cholesterol and triglycerides in the serum. The serum is obtained as described above for hamsters by incubation at 4° C. overnight and subsequent centrifugation at 6000×g. […] The change in the parameters measured is expressed as the percentage change compared with the starting value.

For experiment [2], the target named is T1, CETP (Homo sapiens, UniProt P11597).
T1 construct: CETP is obtained in partially purified form from human plasma; from tissue; host or cells: human plasma
T1 sequence (P11597 18-493): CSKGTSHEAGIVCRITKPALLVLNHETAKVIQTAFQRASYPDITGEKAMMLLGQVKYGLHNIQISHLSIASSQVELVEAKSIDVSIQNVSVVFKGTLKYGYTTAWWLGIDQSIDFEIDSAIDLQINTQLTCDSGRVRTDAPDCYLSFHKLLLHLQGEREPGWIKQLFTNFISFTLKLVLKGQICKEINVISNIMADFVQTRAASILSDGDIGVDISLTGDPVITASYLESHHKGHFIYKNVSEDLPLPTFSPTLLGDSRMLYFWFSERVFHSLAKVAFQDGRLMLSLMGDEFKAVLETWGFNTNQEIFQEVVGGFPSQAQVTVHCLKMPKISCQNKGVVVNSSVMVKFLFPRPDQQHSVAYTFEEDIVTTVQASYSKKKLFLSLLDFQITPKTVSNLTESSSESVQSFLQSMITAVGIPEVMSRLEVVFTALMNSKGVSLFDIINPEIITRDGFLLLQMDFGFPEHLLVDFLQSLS
Description: CETP fluorescence test. The class given is biochemical. To be noted: CETP from human plasma, 37° C., 4 hours; read-out: IC50 (nM) Fluor. test. Here is the method:
(§1) CETP is obtained in partially purified form from human plasma by differential centrifugation and column chromatography and used for the test. To this end, human plasma is adjusted to a density of 1.21 g per ml using NaBr and centrifuged at 4° C. at 50000 rpm for 18 h. The bottom fraction (d>1.21 g/ml) is applied to a Sephadex® Phenyl-Sepharose 4B (Pharmacia) column, washed with 0.15 M NaCl/0.001 M tris HCl pH 7.4 and then eluted with dist. water. Die CETP-active fractions are pooled, dialysed against 50 mM Na acetate pH 4.5 and applied to a CM-Sepharose® (Pharmacia) column. The mixture is then eluted using a linear gradient (0-1 M NaCl). The pooled CETP fractions are dialysed against 10 mM TrisHCl pH 7.4 and then further purified by chromatography on a Mono Q® column (Pharmacia).
Measurement of the CETP-catalysed transfer of a fluorescent cholesterol ester between liposomes—modified according to the procedure of Bisgaier et al., J. Lipid Res. 34, 1625 (1993).
For the production of the donor liposomes, 1 mg of cholesteryl 4,4-difluoro-5,7-dimethyl-4-bora-3a,4a-diaza-s-indacene-3-dodecanoate (cholesteryl BODIPY® FL C12, Molecular Probes) is dissolved in 600 μl of dioxane with 5.35 mg of triolein and 6.67 mg of phosphatidylcholine with gentle warming in an ultrasonic bath and this solution is added very slowly with ultrasonication to 63 ml of 50 mM tris/HCl, 150 mM NaCl, 2 mM EDTA buffer pH 7.3 at RT.
The suspension is then ultrasonicated under an N2 atmosphere for 30 minutes in the Braukson ultrasonic bath at about 50 watts, the temperature being kept at about 20° C.
The acceptor liposomes are obtained analogously from 86 mg of cholesteryl oleate, 20 mg of triolein and 100 mg of phosphatidylcholine dissolved in 1.2 ml of dioxane and 114 ml of above buffer by ultrasonication at 50 watts (20° C.) for 30 minutes.
For testing, a test mix consisting of 1 part of above buffer, 1 part of donor liposomes and 2 parts of acceptor liposomes is used.
80 μl of test mix are treated with 1-3 μg of enriched CETP fraction, obtained from human plasma by means of hydrophobic chromatography, and 2 μl of the substance to be investigated in DMSO and incubated at 37° C. for 4 hours.
The change in the fluorescence at 485/535 nm is a measure of the CE transfer; the inhibition of the transfer in comparison to the control batch without substance is determined.

Experiment [3] deals with Syrian golden hamsters. The experiment can be described thus: In vivo activity in Syrian golden hamsters (HDL cholesterol). To be noted: perorally. Here is the method:
In experiments for the determination of the oral action on lipoproteins and triglycerides, test substance dissolved in DMSO and 0.5% suspended in Tylose are administered perorally by means of a stomach tube to Syrian golden hamsters bred in-house. For the determination of the CETP activity, before the start of the experiment blood is taken by retro-orbital puncture (about 250 μl). The test substances are then administered perorally by means of a stomach tube. The control animals receive identical volumes of solvent without test substance. The feed is then withdrawn from the animals and blood is taken at various times—up to 24 hours after substance administration—by puncture of the retroorbital venous plexus.
Clotting is terminated by incubation at 4° C. overnight, then centrifugation is carried out for 10 minutes at 6000×g. The content of cholesterol and triglycerides in the serum thus obtained is determined with the aid of modified commercially obtainable enzymatic tests (Ecoline 25 Cholesterol 1.14830.0001 Merck Diagnostica, Ecoline 25 Triglycerides 1.14856.0001 Merck Diagnostica). Serum is suitably diluted using physiological saline solution.
10 μl of serum dilution are treated with 200 μl of Ecoline 25 reagent in 96-hole plates and incubated for 10 minutes at room temperature. The optical density is then determined at a wavelength of 490 nm using an automatic plate reader. The triglyceride or cholesterol concentration contained in the samples is determined with the aid of a standard curve measured in parallel.
The determination of the content of HDL cholesterol is carried out after precipitation of the ApoB-containing lipoproteins (Sigma 352-4 HDL cholesterol reagent) according to the manufacturer's instructions.

Experiment [4] deals with T1, CETP. Description: CETP-SPA test. The class given is biochemical. To be noted: 3H-cholesterol ester transfer from HDL to biotin-LDL, 37° C., 18 h. Here is the method: as §1
50 ml of fresh human EDTA plasma are adjusted to a density of 1.12 using NaBr and centrifuged at 4° C. in a Ty 65 rotor at 50000 rpm for 18 h. The upper phase is used for the obtainment of cold LDL. The lower phase is dialysed against 3×41 of PDB buffer (10 mM tris/HCl pH 7.4, […], 1 mM EDTA, 0.02% NaN3). Per 10 ml of retentate volume, 20 μl of 3H-cholesterol (Dupont NET-725; 1 μC/μl dissolved in ethanol!) is then added and the mixture is incubated at 37° C. under N2 for 72 h.
The batch is then adjusted to the density 1.21 using NaBr and centrifuged at 20° C. in a Ty 65 rotor at 50000 rpm for 18 h. The upper phase is recovered and the lipoprotein fractions are purified by gradient centrifugation. To this end, the isolated, labelled lipoprotein fraction is adjusted to a density of 1.26 using NaBr. 4 ml each of this solution are covered in centrifuged tubes (SW 40 rotor) with a layer of 4 ml of a solution of density 1.21 and 4.5 ml of a solution of 1.063 (density solutions of PDB buffer and NaBr) and then centrifuged for 24 h at 38000 rpm and 20° C. in the SW 40 rotor. The intermediate layer lying between the density 1.063 and 1.21, containing the labelled HDL, is dialysed against 3×100 volumes of PDB buffer at 4° C.
The retentate contains radiolabelled ^3H-CE-HDL, which, adjusted to about 5×10^6 cmp per ml, is used for the test.
For testing of the CETP activity, the transfer of ^3H-cholesterol ester from human HD lipoproteins to biotinylated LD lipoproteins is measured.
The reaction is ended by addition of streptavidin-SPA®beads (Amersham) and the transferred radioactivity is determined directly in a liquid scintillation counter.
In the test batch, 10 μl of HDL-^3H-cholesterol ester (˜50000 cpm) are incubated at 37° C. for 18 h with 10 μl of biotin-LDL (Amersham) in 50 mM Hepes/0.15 M NaCl/0.1% bovine serum albumin/0.05% NaN3 pH 7.4 containing 10 μl of CETP (1 mg/ml) and 3 μl of solution of the substance to be tested (dissolved in 10% DMSO/1% RSA). 200 μl of the SPA-streptavidin bead solution (TRKQ 7005) are then added, incubated further with shaking for 1 h and then measured in a scintillation counter.
Corresponding incubations with 10 μl of buffer, 10 μl of CETP at 4° C. and 10 μl of CETP at 37° C. serve as controls.
The activity transferred in the control batches with CETP at 37° C. is rated as 100% transfer. The substance concentration at which this transfer is reduced to half is specified as the IC50 value.

With `CC(C)c1nc2c(c(C3CCCC3)c1[C@@H](O)c1ccc(C(F)(F)F)cc1)[C@@H](O)CC1(CCC1)C2` [Example 69, (5S)-2-Isopropyl-4-cyclopentyl-3-[(S)-hydroxy-(4-trifluoromethylphenyl)-methyl]-7-spirocyclobutyl-5,6,7,8-tetrahydroquinolin-5-ol], the “% HDL increase after 4 d (Dose: 4 × 10 mg/kg)” value in experiment [1] came to 28%. Besides, in experiment [2], the 50% inhibitory concentration (IC50) – broadly, the concentration at which inhibition is half-maximal – was 70 nM.

Take `O[C@@H](c1ccc(C(F)(F)F)cc1)c1c(C2CCCC2)nc2c(c1C1CCCC1)[C@@H](O)CC1(CCC1)C2` [Example 71, (5S)-2,4-Dicyclopentyl-3-[(S)-hydroxy-(4-trifluoromethylphenyl)-methyl]-7-spirocyclobutyl-5,6,7,8-tetrahydroquinolin-5-ol]: in experiment [3], the “% HDL increase after 24 h (Dose: 2 × 10 mg/kg)” value is on record as 14%. Besides, the IC50 in experiment [2] was determined as 40 nM.

Regarding `O[C@@H](c1ccc(C(F)(F)F)cc1)c1c(C2CCCC2)nc2c(c1-c1ccc(F)cc1)[C@@H](O)CC1(CCC1)C2` [Example 80, (5S)-2-Cyclopentyl-4-(4-fluorophenyl)-3-[(S)-hydroxy-(4-trifluoromethylphenyl)-methyl]-7-spirocyclobutyl-5,6,7,8-tetrahydroquinolin-5-ol], the “% HDL increase after 24 h (Dose: 2 × 10 mg/kg)” value in experiment [3] turned out to be 17%. Further, the values for the IC50 in experiment [4] and in experiment [2] were 5 nM and 9 nM, respectively.
